The values below are quoted from earlier work in US20170119663A1, “NOVEL GASTRO-RETENTIVE DOSAGE FORMS” (Grünenthal GmbH, priority 2010, published 2017).

SMILES strings stand for the structures. Like-named read-outs stand apart in the source and are kept apart here.

Turning to `NCC1(CC(=O)O)CCCCC1` [gabapentin], the oral bioavailability entry was “approximately 60%” (dose in the range of 300-400 mg) and 35% (dose of 1600 mg).
For `CC(C)C[C@H](CN)CC(=O)O` [pregabalin], the absorption window result (small intestine and ascending colon) is “around six”.
